This passage reports RP-LC retention time results from the METLIN SMRT retention time set (Domingo-Almenara et al. 2019).

SMILES strings stand for the structures.

A short description of the series: gradient 5% acetonitrile 3 min, to 50% in 2 min, to 85% in 15 min, held 3 min, 100 µL/min. The following applies: column: Zorbax Extend-C18 2.1 x 50 mm; eluents: water / acetonitrile, 0.1% formic acid. An outline of the steps: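 Pure standards were analyzed in mixtures of ~100 molecules using HPLC coupled to a quadrupole time-of-flight mass spectrometer, in both positive and negative ionization mode. Separation used a Zorbax Extend-C18 column (2.1 × 50 mm, 1.8 μm) at 100 μL/min, with water and acetonitrile each containing 0.1% formic acid. Dead and dwell volumes were 40 μL and 900 μL, and data were collected over 3 months. Retention time was read from computationally picked adduct peaks, each inspected manually.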
For `Cc1ccc(S(=O)(=O)N2CCC(c3noc(-c4ccccc4C)n3)CC2)cc1C`, the RP-LC retention time amounted to 1260 s. For the compound `COCCN(Cc1ccncc1)C(=O)c1ccccc1SC`, the RP-LC retention time was determined as 557 s. The value for `Cc1ccc(NC(=O)Cn2cc(-c3ccccc3)c(N(C)C)n2)c(F)c1` was 997 s; that for `CCS(=O)(=O)c1ccc2c(c1)N(Cc1nc(-c3ccccc3)no1)C(=O)CO2` was 865 s; that for `CCC(C)C(NC(=O)Cc1ccc(OC)cc1Cl)C(=O)Nc1nc2ccccc2[nH]1` (stereo not given) was 772 s.

`CCCNC(=O)c1ccc(-c2nc3cc(NS(=O)(=O)c4cnc[nH]4)ccc3n2C)cc1`: the RP-LC retention time turned out to be 578 s. With `CCOCCCNC(=O)c1c2c(cn(-c3ccccc3)c1=O)C(=O)CC(C)(C)C2`, the RP-LC retention time is 591 s. `Cc1ccccc1N1C(=O)CN(S(=O)(=O)c2ccccc2)CC1(C)C(=O)NC1CCCC1` (stereo not given) yielded an RP-LC retention time of 920 s. For `Nc1nnc(-c2ccc(Br)cc2)o1`, the RP-LC retention time stood at 647 s. In turn, `Cc1cc(=O)n(CC(=O)Nc2cccc(C)c2C)c(N)n1` registered an RP-LC retention time of 600 s.

Regarding `COc1cc(NC(=O)Cn2nc3c4ccc(F)cc4ncn3c2=O)cc(OC)c1`, the RP-LC retention time amounted to 715 s. Take `COCCN(CCOC)C(=O)C12CCC(C)(C(=O)C1)C2(C)C` (stereo not given): the RP-LC retention time is 706 s.

Compound `O=C(NCCN1CCCCC1)C1CCN(c2nc3cccnc3s2)CC1` yielded an RP-LC retention time of 581 s. With `Cc1ccc(NC(=O)N2CCC(CC(=O)N3CCCCC3)CC2)cc1C` the figure was 793 s; with `Cc1nc(NC2=NCN(Cc3ccc4c(c3)OCO4)CN2)nc2ccccc12`, 707 s. `CC(=O)N(Cc1nn(C)c2c1CN(Cc1sccc1C)CC2)c1ccccc1` came in with an RP-LC retention time of 611 s.

On to `O=C(CCc1nnc2c3cc(-c4ccccc4)nn3ccn12)N1CCN(C(=O)c2ccco2)CC1`, for which the RP-LC retention time was 679 s. Consider `Cc1nc(-c2ccc(N3CCN(C(=O)c4n[nH]c5ccccc45)CC3)nc2)sc1C`, for which the RP-LC retention time turned out to be 864 s.

`O=C(N[C@H]1C[C@@H]2C[C@H]1CN2C(=O)c1ccoc1)c1ccccc1` showed an RP-LC retention time of 663 s. In turn, `Cc1nc(-c2cccs2)c(CCC(=O)Nc2ccccc2C(F)(F)F)s1` gave an RP-LC retention time of 923 s. In turn, `CCCCOc1ccc(CNC(=O)C2CCN(C(=O)c3cc4ccsc4[nH]3)CC2)cc1` returned an RP-LC retention time of 937 s. The value for `COCCn1c(C2CCN(S(=O)(=O)c3ccc(C)c(Cl)c3)C2)nc2ccncc21` (stereo not given) was 591 s; that for `O=C1NC2(CCN(C(=O)c3c(F)cccc3F)CC2)N=C1c1cccc(F)c1` was 815 s; that for `CCCCN(C)C(=O)C1CCCN(c2ccc(-c3ccc(C)cc3)nn2)C1` (stereo not given) was 750 s. The compound `Cc1ccc(C)c(S(=O)(=O)N2CCc3c(c(-c4nnc(-c5ccc(F)cc5)o4)nn3C)C2)c1` showed an RP-LC retention time of 1040 s. With `COc1cc(CNC(=O)C2CC(=O)N(c3ccc4oc(C)nc4c3)C2)cc(OC)c1` (stereo not given) the figure was 687 s; with `Cc1nc2ccn(Cc3cccnc3)c(=O)c2cc1C(=O)NCc1ccco1`, 575 s; with `COc1ccc(-c2noc(Cc3nnc(-c4ccc(Cl)cc4)o3)n2)cc1F`, 1060 s.

`CCNC(=O)c1cc(N(C)C)nc2c(Cl)cccc12`: the RP-LC retention time is 730 s. `CCNC(=O)C1CCN(c2nc3ccc(-c4cccc(F)c4)nc3s2)CC1`: the RP-LC retention time turned out to be 905 s. Take `CCOC(=O)c1c(S(=O)(=O)NCC(=O)N2CCN(c3ccccn3)CC2)c(C)n(C)c1C`: the RP-LC retention time was determined as 618 s.

Turning to `Cc1ccc(-c2nc(-c3ccc4c(c3)ncn4CCC(=O)N3CCCC3)no2)s1`, the RP-LC retention time was 753 s. With `O=C(NCC1CCN(C(=O)Oc2ccccc2)CC1)c1cnccn1` the figure was 689 s. Compound `Cc1ccc(NC(=O)Cn2nc3c(N4CCCCCC4)nccn3c2=O)cc1F` came in with an RP-LC retention time of 739 s. Compound `CCCn1c(=O)c2sc(N3CCCC3)nc2n(CC(=O)NCc2cccs2)c1=O` displayed an RP-LC retention time of 755 s.

In turn, `CC1Oc2ccc(S(=O)(=O)N3CCC(C(=O)NCc4ccccc4Cl)CC3)cc2NC1=O` (stereo not given) gave an RP-LC retention time of 816 s.

`N#Cc1cccc(CN2CCC(F)(F)C(CO)C2)c1` (stereo not given) displayed an RP-LC retention time of 551 s. Compound `Brc1ccc(OCc2nn3c(-c4cccnc4)nnc3s2)cc1` returned an RP-LC retention time of 885 s.

Consider `C=CCN1CCN(c2nc3cc(C(=O)OC)ccc3c(=O)n2-c2cccc(Cl)c2)CC1`, for which the RP-LC retention time was 681 s. `CCC(NC(=O)C1CCN(c2cncnc2N2CCOCC2)CC1)c1ccc(OC)cc1` (stereo not given) displayed an RP-LC retention time of 643 s.

Compound `COc1ccc2c(c1)C1(CCN(S(=O)(=O)c3cccc(C)c3)C1)C(=O)N2` (stereo not given) came in with an RP-LC retention time of 840 s.

As to `Cc1ccccc1-c1nc(-c2ccc3c(c2)nnn3C)no1`, the RP-LC retention time amounted to 1050 s. For the compound `O=C(C1CCN(c2ccc(Sc3ccc(Cl)cc3)nn2)CC1)N1CCN(c2ccccn2)CC1`, the RP-LC retention time came to 644 s.

Take `Cc1ccc(-c2noc(C3CCCCN3)n2)cc1` (stereo not given): the RP-LC retention time was found to be 630 s.

Take `CC1Cc2ccccc2N1C(=O)c1ccc(=O)n(CCC(=O)NC2CCCCC2)n1` (stereo not given): the RP-LC retention time worked out at 793 s. The value for `Cc1sc(NC(=O)C(C)C)nc1-c1ccc2c(c1)N(C)C(=O)CO2` was 831 s; that for `CC1CCN(c2ncc(S(=O)(=O)c3ccc(C(C)C)cc3)c(N)n2)CC1` was 1240 s; that for `CCOc1ccc2nc(NC(=O)C3CCN(C(=O)c4ccc(-c5noc(C)n5)cc4)CC3)sc2c1` was 875 s. Regarding `CN(C(=O)CC(=O)Nc1ccc2nc3n(c(=O)c2c1)CCCCC3)c1ccccc1F`, the RP-LC retention time came to 682 s. For `CNC(=O)c1[nH]c2ccc(F)cc2c1N1CCCC1=O`, the RP-LC retention time stood at 658 s.

Compound `Cc1ccc(S(=O)(=O)c2nc(C)oc2NCc2ccco2)cc1` showed an RP-LC retention time of 814 s. For `COc1ccc(-c2noc(C3(NC(=O)c4cc(C)cc(C)c4)CCCCC3)n2)cc1`, the RP-LC retention time amounted to 1250 s. `CCc1sc(NC(=O)c2cc3c([nH]c2=O)CCCC3=O)nc1-c1ccc2c(c1)CCCC2` returned an RP-LC retention time of 1170 s. `O=C(C1CCN(S(=O)(=O)c2ccc3nc(-c4ccccc4)[nH]c3c2)CC1)N1CCCC1` came in with an RP-LC retention time of 699 s.

The compound `COc1cccc(-n2cc(C(=O)OCc3ccco3)c3ccccc3c2=O)c1` registered an RP-LC retention time of 1100 s. With `COCCCNC(=O)C1CCCN(c2cnc3nc(C)c(C)nc3c2)C1` (stereo not given) the figure was 619 s. `COCCCN1C(=O)CC(N2CCN(c3ccc(F)cc3)CC2)C1=O` (stereo not given): the RP-LC retention time came out at 666 s. In turn, `CCCCNC(=O)C1CCN(S(C)(=O)=O)c2ccccc2O1` (stereo not given) registered an RP-LC retention time of 728 s. On to `Cc1cc(NC(=O)Cn2cnc(-c3cccs3)cc2=O)no1`, for which the RP-LC retention time turned out to be 669 s. For the compound `CCOc1ccc(-n2cc(C(=O)OCC(=O)OC(C)C)c3ccccc3c2=O)cc1`, the RP-LC retention time turned out to be 1140 s.

Compound `Cc1nn(CC(=O)NCCN(C)Cc2ccccc2)c(=O)c2noc(C)c12` gave an RP-LC retention time of 595 s. The compound `O=C(CN1CCC(c2nc(-c3cccs3)no2)CC1)NCc1ccccc1Cl` yielded an RP-LC retention time of 690 s. Take `CCOc1cc(C(=O)Nc2nc(-c3ccc4c(c3)NC(=O)CO4)cs2)cc(OCC)c1OCC`: the RP-LC retention time was 1030 s. `Cc1noc(C)c1CNC(=O)c1cc(F)ccc1Cl` came in with an RP-LC retention time of 726 s. In turn, `COCCNS(=O)(=O)c1ccc(-c2c(C)noc2C)cc1` displayed an RP-LC retention time of 764 s. The value for `CS(=O)(=O)N1CC(C(=O)Nc2ccccc2)C2(CCCCC2)C1` (stereo not given) was 875 s; that for `CCc1nc(-c2cc(S(=O)(=O)N3CCC(C(=O)NCc4ccco4)CC3)c(C)s2)no1` was 932 s; that for `O=C(NCCc1csc(-c2ccccc2)n1)c1cccs1` was 860 s. The value for `COc1ccc(-c2noc(C3CCCN3C(=O)c3cc(F)ccc3F)n2)cc1OC` (stereo not given) was 900 s.

Regarding `COc1ccc(-n2nc3c(N4CCCC(C(=O)NC5CCCCC5)C4)nnc(C)c3c2C)cc1` (stereo not given), the RP-LC retention time is 732 s. In turn, `Cc1ccc(CCNC(=O)C2CCCN2S(=O)(=O)c2ccc3c(c2)C(C)(C)C(=O)N3C)cc1` (stereo not given) had an RP-LC retention time of 896 s.

`COc1ccc(-c2noc(CN3N=NC4C(=O)N(c5ccc6c(c5)CCC6)C(=O)C43)n2)c(OC)c1` (stereo not given) yielded an RP-LC retention time of 959 s. Turning to `CC(C)(C)CC(=O)N1CC(c2nc(-c3ccccc3)no2)C2(CCOCC2)C1` (stereo not given), the RP-LC retention time was found to be 904 s.

`Cc1cccc(-c2ncccc2CNS(=O)(=O)c2cccc(Cl)c2)c1` gave an RP-LC retention time of 763 s. The value for `O=c1ccc(-c2ccc3c(c2)OCO3)nn1Cc1nc(-c2ccc(F)cc2)no1` was 988 s; that for `CC(C)NC(=O)C1CCC(=O)N1C1CCN(C(=O)C2CCC2)CC1` (stereo not given) was 584 s; that for `Cc1sc(-c2cc(C(F)(F)F)on2)cc1S(=O)(=O)NCC(C)c1ccccc1` (stereo not given) was 1230 s. `CN(CC1CCOCC1)S(=O)(=O)Cc1ccccc1` yielded an RP-LC retention time of 787 s. The value for `COc1cc(OC)cc(-c2nnc(Cc3nc(-c4cccc(C)c4)no3)o2)c1` was 1080 s. The value for `CCn1nccc1-c1csc(S(=O)(=O)N2CCN(c3ccccn3)CC2)c1` was 657 s.
